Assay results reported in paper PMC8037182, “Solvothermal Synthesis of Multiple Dihydropyrimidinones at a Time as Inhibitors of Eg5” (Molecules, 2021).

Legend:
L929 cell line = experiment: Cytotoxicity MTS assay, L929 cell line; format: cell-based; details: for OD490 values, Mean / OD490 values, Well 1 / OD490 values, Well 2 / OD490 values, Well 3: L929 cell line
Procedure, shortened: (§1)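 Growth inhibition is measured by MTS conversion, read as absorbance at 490 nm after 2 h at 37 °C. Compounds act on cells seeded at 1000/well for 24 h across 0.5–100 µM final. Data derive from three independent duplicate experiments.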

Hela cell line = experiment: Cytotoxicity MTS assay, Hela cell line; format: cell-based; details: for OD490 value, Mean / OD490 value, Well 1 / OD490 value, Well 2 / OD490 value, Well 3: Hela cell line, MTS;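 for OD490 value, Mean: blank control wells received 0.025% DMSO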;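 for OD490 value, Well 1: blank control wells received 0.025% DMSO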;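 for OD490 value, Well 2: blank control wells received 0.025% DMSO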;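 for OD490 value, Well 3: blank control wells received 0.025% DMSO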
Procedure, shortened: as §1

CCOc1ccccc1C1NC(=S)NC(C)=C1C(=O)Nc1ccc(Cl)cc1 (centres unmarked) [C9]
OD490 values, Mean (L929 cell line; 0.5μM, first assay): 1.3120
OD490 values, Well 1 (L929 cell line; 0.5μM, first assay): 1.2051
OD490 values, Well 2 (L929 cell line; 0.5μM, first assay): 1.4334
OD490 values, Well 3 (L929 cell line; 0.5μM, first assay): 1.2976
OD490 values, Mean (L929 cell line; 0.5μM, second assay): 1.7414
OD490 values, Well 1 (L929 cell line; 0.5μM, second assay): 1.7956
OD490 values, Well 2 (L929 cell line; 0.5μM, second assay): 1.7365
OD490 values, Well 3 (L929 cell line; 0.5μM, second assay): 1.6920
OD490 values, Mean (L929 cell line; 0.5μM, third assay): 1.5324
OD490 values, Well 1 (L929 cell line; 0.5μM, third assay): 1.5628
OD490 values, Well 2 (L929 cell line; 0.5μM, third assay): 1.4792
OD490 values, Well 3 (L929 cell line; 0.5μM, third assay): 1.5552
OD490 values, Mean (L929 cell line; 1μM, first assay): 1.2882
OD490 values, Well 1 (L929 cell line; 1μM, first assay): 1.1921
OD490 values, Well 2 (L929 cell line; 1μM, first assay): 1.2906
OD490 values, Well 3 (L929 cell line; 1μM, first assay): 1.3820
OD490 values, Mean (L929 cell line; 1μM, second assay): 1.7491
OD490 values, Well 1 (L929 cell line; 1μM, second assay): 1.7526
OD490 values, Well 2 (L929 cell line; 1μM, second assay): 1.7963
OD490 values, Well 3 (L929 cell line; 1μM, second assay): 1.6985
OD490 values, Mean (L929 cell line; 1μM, third assay): 1.5501
OD490 values, Well 1 (L929 cell line; 1μM, third assay): 1.5147
OD490 values, Well 2 (L929 cell line; 1μM, third assay): 1.6354
OD490 values, Well 3 (L929 cell line; 1μM, third assay): 1.5001
OD490 values, Mean (L929 cell line; 10μM, first assay): 1.2539
OD490 values, Well 1 (L929 cell line; 10μM, first assay): 1.1842
OD490 values, Well 2 (L929 cell line; 10μM, first assay): 1.1521
OD490 values, Well 3 (L929 cell line; 10μM, first assay): 1.4254
OD490 values, Mean (L929 cell line; 10μM, second assay): 1.6826
OD490 values, Well 1 (L929 cell line; 10μM, second assay): 1.6658
OD490 values, Well 2 (L929 cell line; 10μM, second assay): 1.5966
OD490 values, Well 3 (L929 cell line; 10μM, second assay): 1.7854
OD490 values, Mean (L929 cell line; 10μM, third assay): 1.5957
OD490 values, Well 1 (L929 cell line; 10μM, third assay): 1.5987
OD490 values, Well 2 (L929 cell line; 10μM, third assay): 1.6038
OD490 values, Well 3 (L929 cell line; 10μM, third assay): 1.5847
OD490 values, Mean (L929 cell line; 25μM, first assay): 1.1905
OD490 values, Well 1 (L929 cell line; 25μM, first assay): 1.1608
OD490 values, Well 2 (L929 cell line; 25μM, first assay): 1.2406
OD490 values, Well 3 (L929 cell line; 25μM, first assay): 1.1701
OD490 values, Mean (L929 cell line; 25μM, second assay): 1.4962
OD490 values, Well 1 (L929 cell line; 25μM, second assay): 1.4563
OD490 values, Well 2 (L929 cell line; 25μM, second assay): 1.5624
OD490 values, Well 3 (L929 cell line; 25μM, second assay): 1.4698
OD490 values, Mean (L929 cell line; 25μM, third assay): 1.3392
OD490 values, Well 1 (L929 cell line; 25μM, third assay): 1.3256
OD490 values, Well 2 (L929 cell line; 25μM, third assay): 1.3332
OD490 values, Well 3 (L929 cell line; 25μM, third assay): 1.3587
OD490 values, Mean (L929 cell line; 50μM, first assay): 1.0589
OD490 values, Well 1 (L929 cell line; 50μM, first assay): 1.0389
OD490 values, Well 2 (L929 cell line; 50μM, first assay): 1.0906
OD490 values, Well 3 (L929 cell line; 50μM, first assay): 1.0471
OD490 values, Mean (L929 cell line; 50μM, second assay): 1.2280
OD490 values, Well 1 (L929 cell line; 50μM, second assay): 1.2236
OD490 values, Well 2 (L929 cell line; 50μM, second assay): 1.2635
OD490 values, Well 3 (L929 cell line; 50μM, second assay): 1.1968
OD490 values, Mean (L929 cell line; 50μM, third assay): 1.1793
OD490 values, Well 1 (L929 cell line; 50μM, third assay): 1.1416
OD490 values, Well 2 (L929 cell line; 50μM, third assay): 1.2010
OD490 values, Well 3 (L929 cell line; 50μM, third assay): 1.1952
OD490 values, Mean (L929 cell line; 100μM, first assay): 0.6738
OD490 values, Well 1 (L929 cell line; 100μM, first assay): 0.6518
OD490 values, Well 2 (L929 cell line; 100μM, first assay): 0.6916
OD490 values, Well 3 (L929 cell line; 100μM, first assay): 0.6781
OD490 values, Mean (L929 cell line; 100μM, second assay): 0.7959
OD490 values, Well 1 (L929 cell line; 100μM, second assay): 0.7856
OD490 values, Well 2 (L929 cell line; 100μM, second assay): 0.7958
OD490 values, Well 3 (L929 cell line; 100μM, second assay): 0.8062
OD490 values, Mean (L929 cell line; 100μM, third assay): 0.7698
OD490 values, Well 1 (L929 cell line; 100μM, third assay): 0.8020
OD490 values, Well 2 (L929 cell line; 100μM, third assay): 0.7321
OD490 values, Well 3 (L929 cell line; 100μM, third assay): 0.7754
IC50 (L929 cell line; Mus musculus, L929, MTS assay, 24 h exposure, ordinary fibroblast, not cancer cells): 86 µM
OD490 value, Mean (Hela cell line; 0.5μM, first assay): 2.5086
OD490 value, Well 1 (Hela cell line; 0.5μM, first assay): 2.5337
OD490 value, Well 2 (Hela cell line; 0.5μM, first assay): 2.5147
OD490 value, Well 3 (Hela cell line; 0.5μM, first assay): 2.4773
OD490 value, Mean (Hela cell line; 0.5μM, second assay): 2.5027
OD490 value, Well 1 (Hela cell line; 0.5μM, second assay): 2.5377
OD490 value, Well 2 (Hela cell line; 0.5μM, second assay): 2.5102
OD490 value, Well 3 (Hela cell line; 0.5μM, second assay): 2.4603
OD490 value, Mean (Hela cell line; 0.5μM, third assay): 2.5209
OD490 value, Well 1 (Hela cell line; 0.5μM, third assay): 2.7845
OD490 value, Well 2 (Hela cell line; 0.5μM, third assay): 2.5536
OD490 value, Well 3 (Hela cell line; 0.5μM, third assay): 2.2245
OD490 value, Mean (Hela cell line; 1μM, first assay): 2.3583
OD490 value, Well 1 (Hela cell line; 1μM, first assay): 2.1436
OD490 value, Well 2 (Hela cell line; 1μM, first assay): 2.5164
OD490 value, Well 3 (Hela cell line; 1μM, first assay): 2.4149
OD490 value, Mean (Hela cell line; 1μM, second assay): 2.3955
OD490 value, Well 1 (Hela cell line; 1μM, second assay): 2.2145
OD490 value, Well 2 (Hela cell line; 1μM, second assay): 2.4935
OD490 value, Well 3 (Hela cell line; 1μM, second assay): 2.4784
OD490 value, Mean (Hela cell line; 1μM, third assay): 2.4734
OD490 value, Well 1 (Hela cell line; 1μM, third assay): 2.4685
OD490 value, Well 2 (Hela cell line; 1μM, third assay): 2.5532
OD490 value, Well 3 (Hela cell line; 1μM, third assay): 2.3985
OD490 value, Mean (Hela cell line; 10μM, first assay): 2.3086
OD490 value, Well 1 (Hela cell line; 10μM, first assay): 2.1660
OD490 value, Well 2 (Hela cell line; 10μM, first assay): 2.3778
OD490 value, Well 3 (Hela cell line; 10μM, first assay): 2.3820
OD490 value, Mean (Hela cell line; 10μM, second assay): 2.1859
OD490 value, Well 1 (Hela cell line; 10μM, second assay): 2.2135
OD490 value, Well 2 (Hela cell line; 10μM, second assay): 2.1456
OD490 value, Well 3 (Hela cell line; 10μM, second assay): 2.1987
OD490 value, Mean (Hela cell line; 10μM, third assay): 2.4047
OD490 value, Well 1 (Hela cell line; 10μM, third assay): 2.2123
OD490 value, Well 2 (Hela cell line; 10μM, third assay): 2.5652
OD490 value, Well 3 (Hela cell line; 10μM, third assay): 2.4365
OD490 value, Mean (Hela cell line; 25μM, first assay): 1.8211
OD490 value, Well 1 (Hela cell line; 25μM, first assay): 1.4666
OD490 value, Well 2 (Hela cell line; 25μM, first assay): 1.9622
OD490 value, Well 3 (Hela cell line; 25μM, first assay): 2.0346
OD490 value, Mean (Hela cell line; 25μM, second assay): 1.8416
OD490 value, Well 1 (Hela cell line; 25μM, second assay): 1.7589
OD490 value, Well 2 (Hela cell line; 25μM, second assay): 1.8637
OD490 value, Well 3 (Hela cell line; 25μM, second assay): 1.9021
OD490 value, Mean (Hela cell line; 25μM, third assay): 1.8662
OD490 value, Well 1 (Hela cell line; 25μM, third assay): 1.7769
OD490 value, Well 2 (Hela cell line; 25μM, third assay): 1.8252
OD490 value, Well 3 (Hela cell line; 25μM, third assay): 1.9965
OD490 value, Mean (Hela cell line; 50μM, first assay): 1.6538
OD490 value, Well 1 (Hela cell line; 50μM, first assay): 1.2953
OD490 value, Well 2 (Hela cell line; 50μM, first assay): 1.8006
OD490 value, Well 3 (Hela cell line; 50μM, first assay): 1.8654
OD490 value, Mean (Hela cell line; 50μM, second assay): 1.6346
OD490 value, Well 1 (Hela cell line; 50μM, second assay): 1.5694
OD490 value, Well 2 (Hela cell line; 50μM, second assay): 1.6357
OD490 value, Well 3 (Hela cell line; 50μM, second assay): 1.6987
OD490 value, Mean (Hela cell line; 50μM, third assay): 1.6911
OD490 value, Well 1 (Hela cell line; 50μM, third assay): 1.6532
OD490 value, Well 2 (Hela cell line; 50μM, third assay): 1.7755
OD490 value, Well 3 (Hela cell line; 50μM, third assay): 1.6445
OD490 value, Mean (Hela cell line; 100μM, first assay): 1.1310
OD490 value, Well 1 (Hela cell line; 100μM, first assay): 0.9154
OD490 value, Well 2 (Hela cell line; 100μM, first assay): 1.2917
OD490 value, Well 3 (Hela cell line; 100μM, first assay): 1.1859
OD490 value, Mean (Hela cell line; 100μM, second assay): 1.0983
OD490 value, Well 1 (Hela cell line; 100μM, second assay): 1.1234
OD490 value, Well 2 (Hela cell line; 100μM, second assay): 1.1125
OD490 value, Well 3 (Hela cell line; 100μM, second assay): 1.0589
OD490 value, Mean (Hela cell line; 100μM, third assay): 1.1051
OD490 value, Well 1 (Hela cell line; 100μM, third assay): 1.0232
OD490 value, Well 2 (Hela cell line; 100μM, third assay): 1.1136
OD490 value, Well 3 (Hela cell line; 100μM, third assay): 1.1784
IC50 (Hela cell line; Homo sapiens, HeLa, 24 h, MTS assay, 24 h exposure): 75.6 µM
